The assay addresses IKZF2 (Helios) (Homo sapiens, UniProt Q96SW2+Q9UKS7). In words: Prolabel quantification of IKZF2 protein levels in 293GT cells. It is filed as cell-based. As to conditions: 24 h, read-out: IKZF2 % protein reduction at 10 μM, 24 h.
Where [1] appears, read: Pro-label assay, 293GT cells, 10 μM.

Each structure is given as a SMILES string. Read-outs that look alike come from different tables or passages of the source.

For 13 compounds, IKZF2 % protein reduction results are on record in patent publication US11192877B2, “3-(5-hydroxy-1-oxoisoindolin-2-yl)piperidine-2,6-dione derivatives and uses thereof” (Novartis AG, priority 2018, dated 2021).

Sequence of IKZF2 (Helios) (Q9UKS7 whole entry): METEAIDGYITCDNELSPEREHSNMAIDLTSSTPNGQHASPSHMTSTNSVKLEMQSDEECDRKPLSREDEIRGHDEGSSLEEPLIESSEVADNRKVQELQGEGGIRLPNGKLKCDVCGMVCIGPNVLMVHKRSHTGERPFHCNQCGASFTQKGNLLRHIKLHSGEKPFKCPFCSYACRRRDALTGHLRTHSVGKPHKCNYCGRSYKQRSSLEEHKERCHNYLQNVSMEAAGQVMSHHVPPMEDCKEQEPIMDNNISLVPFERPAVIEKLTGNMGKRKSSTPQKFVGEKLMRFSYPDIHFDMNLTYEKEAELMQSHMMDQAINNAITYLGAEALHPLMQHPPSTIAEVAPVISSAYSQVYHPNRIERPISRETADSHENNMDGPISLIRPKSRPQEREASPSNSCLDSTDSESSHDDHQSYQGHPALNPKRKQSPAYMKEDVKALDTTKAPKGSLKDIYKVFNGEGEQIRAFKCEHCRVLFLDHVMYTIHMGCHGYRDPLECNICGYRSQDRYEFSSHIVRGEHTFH
Sequence of IKZF2 (Helios) (Q96SW2 whole entry): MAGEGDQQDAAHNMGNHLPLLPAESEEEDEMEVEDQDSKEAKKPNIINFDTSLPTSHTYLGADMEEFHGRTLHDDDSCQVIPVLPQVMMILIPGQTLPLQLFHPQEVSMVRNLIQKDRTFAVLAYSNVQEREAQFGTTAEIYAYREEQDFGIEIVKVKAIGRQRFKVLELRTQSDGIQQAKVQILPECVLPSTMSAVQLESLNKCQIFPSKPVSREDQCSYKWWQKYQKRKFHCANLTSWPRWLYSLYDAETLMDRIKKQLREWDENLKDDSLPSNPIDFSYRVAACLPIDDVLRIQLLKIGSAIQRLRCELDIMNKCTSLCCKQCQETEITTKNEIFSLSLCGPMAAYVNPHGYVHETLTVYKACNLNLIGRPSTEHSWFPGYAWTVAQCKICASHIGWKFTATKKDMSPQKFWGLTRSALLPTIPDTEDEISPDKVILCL
Sequence of IKZF2 (Helios) (Q16531 whole entry partner): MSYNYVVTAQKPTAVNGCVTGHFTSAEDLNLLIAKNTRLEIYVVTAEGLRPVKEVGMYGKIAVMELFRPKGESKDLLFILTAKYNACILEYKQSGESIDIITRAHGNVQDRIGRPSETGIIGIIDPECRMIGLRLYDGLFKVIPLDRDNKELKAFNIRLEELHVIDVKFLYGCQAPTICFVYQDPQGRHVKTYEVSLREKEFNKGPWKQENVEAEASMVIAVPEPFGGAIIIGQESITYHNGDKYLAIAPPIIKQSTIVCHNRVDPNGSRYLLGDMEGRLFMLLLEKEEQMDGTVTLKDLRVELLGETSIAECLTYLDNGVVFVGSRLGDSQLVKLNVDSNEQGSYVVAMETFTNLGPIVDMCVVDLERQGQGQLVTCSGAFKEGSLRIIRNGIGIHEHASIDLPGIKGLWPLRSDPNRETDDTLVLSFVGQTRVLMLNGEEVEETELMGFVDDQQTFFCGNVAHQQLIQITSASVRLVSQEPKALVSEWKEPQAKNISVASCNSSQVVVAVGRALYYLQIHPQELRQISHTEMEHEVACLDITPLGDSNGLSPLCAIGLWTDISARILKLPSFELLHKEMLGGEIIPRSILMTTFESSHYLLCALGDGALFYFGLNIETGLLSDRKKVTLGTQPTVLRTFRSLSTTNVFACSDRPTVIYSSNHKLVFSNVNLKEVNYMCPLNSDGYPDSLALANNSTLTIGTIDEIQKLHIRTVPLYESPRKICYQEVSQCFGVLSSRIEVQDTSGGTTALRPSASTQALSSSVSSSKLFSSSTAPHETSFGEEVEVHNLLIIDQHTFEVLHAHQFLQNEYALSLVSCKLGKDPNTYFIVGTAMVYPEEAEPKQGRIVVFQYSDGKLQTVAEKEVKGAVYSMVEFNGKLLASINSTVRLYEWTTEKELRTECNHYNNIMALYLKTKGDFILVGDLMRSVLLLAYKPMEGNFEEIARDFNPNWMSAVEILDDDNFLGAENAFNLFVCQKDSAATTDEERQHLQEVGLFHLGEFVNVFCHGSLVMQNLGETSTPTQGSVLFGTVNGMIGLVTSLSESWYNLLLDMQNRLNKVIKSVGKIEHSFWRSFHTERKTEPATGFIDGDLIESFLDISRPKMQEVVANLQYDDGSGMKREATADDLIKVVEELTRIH

In the case of `O=C1CCC(N2Cc3cc(O[C@H]4CCC[C@@H]4N4CC5(COC5)C4)ccc3C2=O)C(=O)N1` (stereo partly drawn) [I-147, 3-(5-(((1S,2S)-2-(2-oxa-6-azaspiro[3.3]heptan-6-yl)cyclopentyl)oxy)-1-oxoisoindolin-2-yl)piperidine-2,6-dione], under setting [1], the IKZF2 % protein reduction at 10 µM turned out to be 44%. For the compound `CC1(C)CCN([C@H]2CCC[C@@H]2Oc2ccc3c(c2)CN(C2CCC(=O)NC2=O)C3=O)CC1` (stereo partly drawn) [I-153, 3-(5-(((1S,2S)-2-(4,4-dimethylpiperidin-1-yl)cyclopentyl)oxy)-1-oxoisoindolin-2-yl)piperidine-2,6-dione], the IKZF2 % protein reduction at 10 µM is 85%. Regarding `O=C1CCC(N2Cc3cc(O[C@H]4CCC[C@@H]4N4CCC(OCC5CC5)CC4)ccc3C2=O)C(=O)N1` (stereo partly drawn) [I-186, 3-(5-(((1S,2S)-2-(4-(cyclopropylmethoxy)piperidin-1-yl)cyclopentyl)oxy)-1-oxoisoindolin-2-yl)piperidine-2,6-dione], the IKZF2 % protein reduction at 10 µM came to 86%. Same read-out and setting: then `CCN(CC)[C@H]1c2ccccc2C[C@@H]1Oc1ccc2c(c1)CN(C1CCC(=O)NC1=O)C2=O` (stereo partly drawn) [I-199, 3-(5-(((1S,2S)-1-(diethylamino)-2,3-dihydro-1H-inden-2-yl)oxy)-1-oxoisoindolin-2-yl)piperidine-2,6-dione], with 71%. As to `O=C1CCC(N2Cc3cc(O[C@H]4CCC[C@@H]4N(CC4CC4)CC4CC4)ccc3C2=O)C(=O)N1` (stereo partly drawn) [I-31, 3-(5-(((1S,2S)-2-(bis(cyclopropylmethyl)amino)cyclopentyl)oxy)-1-oxoisoindolin-2-yl)piperidine-2,6-dione], under setting [1], the IKZF2 % protein reduction at 10 µM came out at 90%. For the compound `CN(Cc1ccccc1)[C@H]1CCCC[C@@H]1Oc1ccc2c(c1)CN(C1CCC(=O)NC1=O)C2=O` (stereo partly drawn) [I-39, 3-(5-(((1S,2S)-2-(benzyl(methyl)amino)cyclohexyl)oxy)-1-oxoisoindolin-2-yl)piperidine-2,6-dione], the IKZF2 % protein reduction at 10 µM under setting [1] was 57%. Still for that read-out and setting: in the case of `CC1CCN([C@H]2CCC[C@@H]2Oc2ccc3c(c2)CN(C2CCC(=O)NC2=O)C3=O)CC1` (stereo partly drawn) [I-149, 3-(5-(((1S,2S)-2-(4-methylpiperidin-1-yl)cyclopentyl)oxy)-1-oxoisoindolin-2-yl)piperidine-2,6-dione] it was 77%; in that of `CN[C@H]1CCCC[C@@H]1Oc1ccc2c(c1)CN(C1CCC(=O)NC1=O)C2=O` (stereo partly drawn) [I-36, 3-(5-(((1S,2S)-2-(methylamino)cyclohexyl)oxy)-1-oxoisoindolin-2-yl)piperidine-2,6-dione], 80%. On the same count and under the same terms, then `CCN(CC1CC(C)(C#N)C1)C1CCCC1Oc1ccc2c(c1)CN(C1CCC(=O)NC1=O)C2=O` (single isomer, unassigned) [I-164], with 71%; and `CC1(C)CCCN([C@@H]2CCC[C@H]2Oc2ccc3c(c2)CN(C2CCC(=O)NC2=O)C3=O)C1` (single isomer, unassigned) [I-169], with 2%. With `O=C1CCC(N2Cc3cc(O[C@H]4CCCC[C@@H]4N4CC5(COC5)C4)ccc3C2=O)C(=O)N1` (stereo partly drawn) [I-74, 3-(5-(((1S,2S)-2-(2-oxa-6-azaspiro[3.3]heptan-6-yl)cyclohexyl)oxy)-1-oxoisoindolin-2-yl)piperidine-2,6-dione], under setting [1], the IKZF2 % protein reduction at 10 µM was 58%. On the same count and under the same terms, then `CC1(O)CCN([C@H]2CCC[C@@H]2Oc2ccc3c(c2)CN(C2CCC(=O)NC2=O)C3=O)CC1` (stereo partly drawn) [I-138, 3-(5-(((1S,2S)-2-(4-hydroxy-4-methylpiperidin-1-yl)cyclopentyl)oxy)-1-oxoisoindolin-2-yl)piperidine-2,6-dione], with 83%. Still for that read-out and setting: then `CC1(C)CC(CN[C@H]2CCCC[C@@H]2Oc2ccc3c(c2)CN(C2CCC(=O)NC2=O)C3=O)CCO1` (stereo partly drawn) [I-107, 3-(5-(((1S,2S)-2-(((2,2-dimethyltetrahydro-2H-pyran-4-yl)methyl)amino)cyclohexyl)oxy)-1-oxoisoindolin-2-yl)piperidine-2,6-dione], with 89%.
